The text below walks through data of BindingDB's records for doi:10.1016/j.bmcl.2005.10.013 (Universidad De Santiago De Compostela, 2005).

For orientation: pIC50 means the IC50 on a negative log10 scale, so that one unit is a factor of ten.

The nature of test [1]: Inhibition of thrombin-induced platelet aggregation in human.
Test [2] can be described thus: Noradrenaline induced vasorelaxant activity in intact rat aortic rings.

Structures are written as SMILES. pIC50: −log10 of the molar value.

With `O=c1oc2c(O)cc(O)cc2cc1-c1cc(O)cc(O)c1` [6,8-dihydroxy-3-(3',5'-dihydroxyphenyl)coumarin], the negative-log IC50 (pIC50) in test [1] was 3.55; in test [2] it was 4.02.

Take `COc1cc(OC)cc(-c2cc3cc(OC)cc(OC)c3oc2=O)c1` [6,8-dimethoxy-3-(3',5'-dimethoxyphenyl)coumarin]: the pIC50 in test [1] and in test [2] was below 4.00 each time.

For `O=c1oc2ccc(O)cc2cc1-c1cc(O)cc(O)c1` [6-hydroxy-3-(3',5'-dihydroxyphenyl)coumarin], the pIC50 in test [1] is 4.52; in test [2], 4.98.

Turning to `COc1cc(OC)cc(-c2cc3ccc(OC)cc3oc2=O)c1` [7-methoxy-3-(3',5'-dimethoxyphenyl)coumarin], the results for the negative-log IC50 (pIC50) in test [1] and in test [2] were below 4.00 and 4.28, respectively.

Take `COc1cc(OC)cc(-c2cc3cc(OC)ccc3oc2=O)c1` [6-methoxy-3-(3',5'-dimethoxyphenyl)coumarin]: the pIC50 was below 4.60 in test [1] and 4.37 in test [2].

`O=c1oc2cc(O)ccc2cc1-c1cc(O)cc(O)c1` [7-hydroxy-3-(3',5'-dihydroxyphenyl)coumarin]: the negative logarithm of the IC50 (pIC50) in test [1] is 4.21; in test [2] it was 4.41.

For the compound `COc1cc(OC)cc(-c2cc3ccc(O)cc3oc2=O)c1` [3-(3,5-dimethoxyphenyl)-7-hydroxy-2H-chromen-2-one], the pIC50 in test [1] was 3.98; in test [2], 4.40.

For the compound `Oc1ccc(/C=C/c2cc(O)cc(O)c2)cc1` [5-[(E)-2-(4-hydroxyphenyl)ethenyl]benzene-1,3-diol], the pIC50 in test [2] is 4.70.
